Measurements reported in publication PMC7835950 (Frontiers in Chemistry, 2021).
Like-named read-outs stand apart in the source and are kept apart here.

How the values were obtained:
[1] = target: T1, OGDH (Rattus norvegicus, UniProt Q5XI78); assay: OADH reaction catalyzed by the enzyme preparation from rat liver, high [OA] (low-affinity OA sites); type: biochemical; details: for Amax: low-affinity sites
T1 construct: the tissue fractions with the complexes enriched to a degree allowing for a robust detection of the enzymatic activities, have been used; from tissue; host or cells: rat liver
T1 sequence (Q5XI78 41-1023): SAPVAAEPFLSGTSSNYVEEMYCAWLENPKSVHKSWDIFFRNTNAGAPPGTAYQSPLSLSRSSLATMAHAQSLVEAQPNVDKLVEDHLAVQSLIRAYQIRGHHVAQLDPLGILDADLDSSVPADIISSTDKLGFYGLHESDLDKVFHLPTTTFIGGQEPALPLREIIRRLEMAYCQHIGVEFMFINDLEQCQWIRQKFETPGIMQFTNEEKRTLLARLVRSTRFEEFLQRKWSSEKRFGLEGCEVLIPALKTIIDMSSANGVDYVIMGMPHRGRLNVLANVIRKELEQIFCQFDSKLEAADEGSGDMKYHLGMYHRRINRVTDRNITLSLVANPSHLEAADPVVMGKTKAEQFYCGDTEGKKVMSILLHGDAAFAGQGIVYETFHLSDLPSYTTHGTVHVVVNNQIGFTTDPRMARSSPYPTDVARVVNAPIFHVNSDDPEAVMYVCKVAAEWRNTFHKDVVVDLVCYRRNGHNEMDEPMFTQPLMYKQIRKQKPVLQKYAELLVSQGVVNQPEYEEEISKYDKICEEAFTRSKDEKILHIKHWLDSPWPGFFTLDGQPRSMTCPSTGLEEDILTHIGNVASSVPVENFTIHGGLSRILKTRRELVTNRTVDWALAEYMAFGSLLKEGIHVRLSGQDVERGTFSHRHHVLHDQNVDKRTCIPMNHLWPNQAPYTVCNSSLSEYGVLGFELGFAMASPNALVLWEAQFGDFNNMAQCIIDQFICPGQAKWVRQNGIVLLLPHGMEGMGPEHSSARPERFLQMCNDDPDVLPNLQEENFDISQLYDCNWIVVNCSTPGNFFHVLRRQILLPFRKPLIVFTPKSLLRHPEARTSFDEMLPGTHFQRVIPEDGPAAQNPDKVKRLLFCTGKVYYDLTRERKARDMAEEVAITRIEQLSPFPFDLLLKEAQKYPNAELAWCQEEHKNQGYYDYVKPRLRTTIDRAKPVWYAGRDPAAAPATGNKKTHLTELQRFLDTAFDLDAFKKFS
Procedure: Enzymes catalyzing OGDH and OADH reactions were enriched from rat hearts and livers using polyethylene glycol precipitation, as previously described (Artiukhov et al., [2020]).
(§1) The enzyme activities were assayed in the medium (pH 7.0) containing 50 mM MOPS, 1 mM ThDP, 1 mM MgCl2, 1 mM CaCl2, 1 mM dithiothreitol 0.15 mM Coenzyme A, 0.25 mM NAD^+ and various concentrations of 2-oxo substrates (0–10 mM OG or OA) and their phosphonate analogs (0–5,000 μM SP, GP, or AP). Reactions were started by addition of the enzyme preparations to the assay media. The amount of enzyme preparations (0.074 mg protein for the preparation from liver and 0.023 mg protein for the preparation from heart) were chosen to induce the lowest reliably measured reaction rate (ΔA340 = 0.001/min) at 0.01 mM OA without the phosphonates.
Reaction rates were calculated from linear parts of the product accumulation curves (up to 10 min, dependent on the reaction rate), excluding the initial region, where mixing the reagents and solubilization of the preparation affected the optical density.
Non-linear regression was used to approximate the experimental dependences of the reaction rates on the OG or OA concentration according to the Michaelis-Menten equation ( a=Amax*[S]/Km+[S] ) or its sum ( a=Amax*[S]/Km+[S]+Amax,2*[S]/Km,2+[S] ). The former equation describes one type of the active sites. […] The assumption was based on the presence of the two enzymes, OGDH and OADH, in the employed preparations.
The kinetic data were also analyzed by linear regression, using the known methods of the linearization of the Michaelis-Menten equation in the Lineweaver-Burk ( 1/a=1/Amax(1+Km/[S]) ) and Eadie-Hofstee ( a=Amax−Kmv/[S] ) coordinates. Due to the several orders of magnitude difference in the values of Km,1 and Km,2, the linear regression required separate analysis of the dependencies in the intervals of the low and high concentrations of 2-oxoadipate. The Km and Amax values obtained in independent experiments using the non-linear and linear regression analyses of the experimental data, were averaged and presented as Mean ± Standard Error of Mean.
(§2) To determine the inhibition constants (Ki), the effective values of Kmeff and Amaxeff , calculated from the hyperbolic or linear approximations as described above, were plotted against the concentration of the inhibitors ([I]). The linear regression of the equation Kmeff/Amaxeff=Km/Amax(1+[I]/Ki) , (Cornish-Bowden, [1979]) was applied to find the Intercept (Km/Amax) and Slope (Km/(Amax*Ki)) of a dependence. The values of Ki were determined as the ratio of the corresponding Intercepts to the Slopes. In the two-site model, the Ki(1) and Ki(2) were calculated separately from the linear approximations of Km,1eff/Amax,1eff vs. [I] and Km,2eff/Amax,2eff vs. [I] dependences, respectively. The standard errors of Ki were determined from means and standard errors of the Intercepts and the Slopes, using the previously described formula for standard deviation of a fraction (Bunik et al., [1999]). The Ki values obtained from the non-linear and linear regression analyses of the experimental data were averaged and presented as Mean ± Standard Error of Mean.

[2] = tested on: OGDH and OADH; assay: Mechanism of inhibition of the OGDH and OADH reactions (effective Km and Amax vs inhibitor concentration); type: biochemical, rat; details: vs 2-oxo substrate; cardiac or hepatic preparations; inhibitor up to 200 μM
Procedure: as §1, §2

[3] = high [OA] 0.1–10 mM, Michaelis-Menten, read-out: Ki, MM
[4] = high [OA], Eadie-Hofstee, read-out: Ki, EH
[5] = high [OA], Lineweaver-Burk, read-out: Ki, LB
[6] = high [OA], average, read-out: Ki, Average

| SMILES | Amax ([1]; [I] 0.5 µM) | Amax ([1]; [I] 2 µM) | Amax ([1]; [I] 10 µM) | Amax ([1]; [I] 50 µM) | Amax ([1]; [I] 200 µM) | Ki [1, 3] [µM] | Ki [1, 4] [µM] | Ki [1, 5] [µM] | Ki [1, 6] [µM] | primary mechanism of inhibition [2] |
| --- | --- | --- | --- | --- | --- | --- | --- | --- | --- | --- |
| O=C(O)CCCCC(=O)P(=O)(O)O [AP, adipoyl phosphonate] | 0.0084 ± 0.0002 µmol/min per mg of protein | 0.0085 ± 0.0002 µmol/min per mg of protein | 0.0090 ± 0.0003 µmol/min per mg of protein | 0.0096 ± 0.0002 µmol/min per mg of protein | 0.0097 ± 0.0010 µmol/min per mg of protein | 50 ± 2 | 47 ± 2 | 46 ± 2 | 47 ± 1 | competitive inhibition |
| O=C(O)CCCC(=O)P(=O)(O)O [GP, glutaryl phosphonate] | – | 0.0088 ± 0.0004 µmol/min per mg of protein | 0.0093 ± 0.0005 µmol/min per mg of protein | 0.0056 ± 0.0001 µmol/min per mg of protein | – | 1.4 ± 0.2 | 1.3 ± 0.3 | 1.3 ± 0.3 | 1.3 ± 0.2 | competitive inhibition |
| O=C(O)CCC(=O)P(=O)(O)O [SP, succinyl phosphonate] | – | – | 0.0080 ± 0.0004 µmol/min per mg of protein | 0.0074 ± 0.0002 µmol/min per mg of protein | – | 3.7 ± 0.1 | 2.5 ± 0.4 | 2.1 ± 0.4 | 2.8 ± 0.5 | competitive inhibition |
